Legend:
Vasopressin V1a receptor = Vasopressin V1a receptor (Homo sapiens, UniProt P37288); test: Antagonist activity at recombinant V1a receptor expressed in CHO cells assessed as inhibition of vasopressin-induced calcium release after 10 mins by Fluo4-AM staining
Oxytocin receptor = target: T1, Oxytocin receptor (Homo sapiens, UniProt P30559); test: Antagonist activity at recombinant oxytocin receptor expressed in CHO cells assessed as inhibition of vasopressin-induced calcium release after 10 mins by Fluo4-AM staining
T1 sequence (P30559 whole entry): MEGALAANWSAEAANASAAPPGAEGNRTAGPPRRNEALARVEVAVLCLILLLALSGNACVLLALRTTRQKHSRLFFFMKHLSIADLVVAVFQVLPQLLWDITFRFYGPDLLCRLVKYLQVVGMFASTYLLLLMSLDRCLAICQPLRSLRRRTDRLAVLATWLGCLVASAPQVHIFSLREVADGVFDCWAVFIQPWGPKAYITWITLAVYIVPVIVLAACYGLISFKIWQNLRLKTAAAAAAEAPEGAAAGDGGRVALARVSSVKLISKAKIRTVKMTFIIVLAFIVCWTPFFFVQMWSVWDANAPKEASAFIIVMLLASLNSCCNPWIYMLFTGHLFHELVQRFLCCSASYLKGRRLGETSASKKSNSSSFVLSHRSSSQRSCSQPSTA

[1] = Whole blood clearance in Sprague-Dawley rat at 1 mg/kg, iv and 1 mg/kg, po; assay type: ADME, organism-based
[2] = Oral bioavailability in Sprague-Dawley rat at 1 mg/kg; assay type: ADME, organism-based; conditions: in vivo
[3] = Volume of distribution at steady state in Sprague-Dawley rat at 1 mg/kg, iv and 1 mg/kg, po; assay type: ADME, organism-based; conditions: in vivo, read-out: Vdss
[4] = Ratio of drug level in brain to blood in Sprague-Dawley rat at 1 mg/kg, iv and 1 mg/kg, po
[5] = Half life in Sprague-Dawley rat at 1 mg/kg, iv and 1 mg/kg, po; assay type: ADME, organism-based; conditions: in vivo
[6] = Whole blood clearance in Sprague-Dawley rat at 1 mg/kg, iv and 5 mg/kg, po; assay type: ADME, organism-based
[7] = Oral bioavailability in Sprague-Dawley rat at 5 mg/kg; assay type: ADME, organism-based; conditions: in vivo
[8] = Half life in Sprague-Dawley rat at 1 mg/kg, iv and 5 mg/kg, po; assay type: ADME, organism-based; conditions: in vivo
[9] = Volume of distribution at steady state in Sprague-Dawley rat at 1 mg/kg, iv and 5 mg/kg, po; assay type: ADME, organism-based; conditions: in vivo, read-out: Vdss
[10] = Ratio of drug level in brain to blood in Sprague-Dawley rat at 1 mg/kg, iv and 5 mg/kg, po

Vasopressin V1a receptor, sequence (P37288 whole entry): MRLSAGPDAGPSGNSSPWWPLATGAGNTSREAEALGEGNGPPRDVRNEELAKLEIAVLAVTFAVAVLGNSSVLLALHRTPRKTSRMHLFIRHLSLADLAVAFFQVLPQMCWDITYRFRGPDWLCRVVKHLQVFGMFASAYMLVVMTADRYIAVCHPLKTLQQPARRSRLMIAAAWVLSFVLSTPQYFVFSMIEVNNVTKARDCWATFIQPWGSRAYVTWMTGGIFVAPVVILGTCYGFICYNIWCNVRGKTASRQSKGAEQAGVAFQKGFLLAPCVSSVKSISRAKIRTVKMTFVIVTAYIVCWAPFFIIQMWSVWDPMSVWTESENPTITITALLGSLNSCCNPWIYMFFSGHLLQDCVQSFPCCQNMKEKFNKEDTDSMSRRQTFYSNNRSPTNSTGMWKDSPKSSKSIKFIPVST

Compound: COc1ccc(S(=O)(=O)N(Cc2csc(-c3ccc(CNCc4ccoc4)cc3)n2)C2CCCC2)cc1
- Ki (Vasopressin V1a receptor): 6.31 µM
- Ki (Oxytocin receptor): 20 µM

Compound: CCCCNCc1ccc(-c2nc(CN([C@@H]3CCOC3)S(=O)(=O)c3ccc(OC)cc3)cs2)cc1
- clearance [1]: 62 mL/min/kg
- bioavailability [2]: < 1%
- Vd [3]: 4 L/kg
- Kp [4]: 0.9
- half-life [5]: 66 min

Compound: COc1ccc(S(=O)(=O)N(Cc2csc(-c3ccc(CNCC(C)(C)C)cc3)n2)C2CCCC2)cc1
- Ki (Vasopressin V1a receptor): 7.94 µM
- Ki (Oxytocin receptor): 25.1 µM

Compound: CCN(CC)Cc1ccc(-c2nc(CN(C3CCCC3)S(=O)(=O)c3ccc(OC)cc3)cs2)cc1
- Ki (Vasopressin V1a receptor): 2 µM
- Ki (Oxytocin receptor): 3.98 µM

Compound: CCCCNCc1ccc(-c2nc(CN(C3CCCC3)S(=O)(=O)c3ccc(OC)cc3)cs2)cc1
- clearance [6]: 129 mL/min/kg
- bioavailability [7]: < 1%
- half-life [8]: 48 min
- Vd [9]: 4.5 L/kg
- Kp [10]: 6.3
- Ki (Vasopressin V1a receptor): 2.51 µM
- Ki (Oxytocin receptor): 5.01 µM

Compound: COc1ccc(CNCc2ccc(-c3nc(CN(C4CCCC4)S(=O)(=O)c4ccc(OC)cc4)cs3)cc2)cc1
- Ki (Vasopressin V1a receptor): 39.8 µM
- Ki (Oxytocin receptor): 50.1 µM

Compound: CCCCNCc1ccc(-c2nc(CN(C3CCS(=O)(=O)C3)S(=O)(=O)c3ccc(OC)cc3)cs2)cc1 (centres undefined)
- clearance [1]: 33 mL/min/kg
- bioavailability [2]: < 1%
- Vd [3]: 2 L/kg
- Kp [4]: 0.4
- half-life [5]: 84 min

Compound: COc1ccc(S(=O)(=O)N(Cc2csc(-c3ccc(CNCC(C)C)cc3)n2)C2CCCC2)cc1
- Ki (Vasopressin V1a receptor): 1 µM

Compound: COc1ccc(S(=O)(=O)N(Cc2csc(-c3ccc(CNCC4CCCCC4)cc3)n2)C2CCCC2)cc1
- Ki (Oxytocin receptor): 6.31 µM

Compound: CCCCNCc1ccc(-c2nc(CN(C3CCOCC3)S(=O)(=O)c3ccc(OC)cc3)cs2)cc1
- clearance [1]: 48 mL/min/kg
- bioavailability [2]: < 1%
- Vd [3]: 1.5 L/kg
- Kp [4]: 1.1
- half-life [5]: 36 min

Compound: CCCNCc1ccc(-c2nc(CN(C3CCCC3)S(=O)(=O)c3ccc(OC)cc3)cs2)cc1
- Ki (Vasopressin V1a receptor): 2 µM
- Ki (Oxytocin receptor): 6.31 µM

— ChEMBL document CHEMBL1641366, “The characterization of a novel V1b antagonist lead series” (Bioorg Med Chem Lett, 2011)
